According to BindingDB's records for doi:10.1016/j.bioorg.2006.11.002 (The Josip Juraj Strossmayer University, 2007):

Experiments:
[1] = biological target: T1, Dipeptidyl peptidase 3 (Homo sapiens, UniProt Q9NY33); assay: Enzyme Inhibition Assay; conditions: pH 7.4; 25 °C
T1 sequence (Q9NY33 whole entry): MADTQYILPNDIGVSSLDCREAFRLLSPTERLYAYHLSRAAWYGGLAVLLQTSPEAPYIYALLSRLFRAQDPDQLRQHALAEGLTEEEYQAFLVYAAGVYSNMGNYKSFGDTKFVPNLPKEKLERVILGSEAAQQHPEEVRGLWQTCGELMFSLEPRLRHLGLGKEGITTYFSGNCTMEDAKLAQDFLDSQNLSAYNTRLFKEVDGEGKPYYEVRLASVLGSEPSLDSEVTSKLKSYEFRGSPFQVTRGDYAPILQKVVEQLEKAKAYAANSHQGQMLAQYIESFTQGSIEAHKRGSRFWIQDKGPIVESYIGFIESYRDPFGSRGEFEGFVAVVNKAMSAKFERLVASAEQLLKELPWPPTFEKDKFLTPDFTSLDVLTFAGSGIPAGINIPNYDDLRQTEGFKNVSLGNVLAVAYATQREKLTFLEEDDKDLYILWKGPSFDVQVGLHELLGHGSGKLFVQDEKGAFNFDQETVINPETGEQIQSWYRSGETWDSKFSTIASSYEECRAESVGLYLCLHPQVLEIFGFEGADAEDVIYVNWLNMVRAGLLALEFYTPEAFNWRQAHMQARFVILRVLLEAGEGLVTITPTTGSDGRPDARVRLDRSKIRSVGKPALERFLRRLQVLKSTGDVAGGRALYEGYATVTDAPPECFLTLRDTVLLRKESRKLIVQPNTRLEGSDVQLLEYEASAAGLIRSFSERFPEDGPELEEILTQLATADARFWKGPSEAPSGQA
Description: The IC50 value is defined as the concentration of an inhibitor with caused 50% reduction of the enzyme activity under specific condition. The principle of these assay with synthetic 2-naphthylamide substrates is based on the absorbance at 530nm of a chromophoric complex formed by the reaction product 2-naphthylamine with Fast Blue B salt.

[2] = biological target: T1, Dipeptidyl peptidase 3; assay: Enzyme Inhibition Assay; conditions: pH 7.4; 25 °C; remark: listed apart in the source

Row | IC50 [1] [µM] | Kd [2] [µM] | Structure (SMILES)
1 | 10 |  | c1csc(C2C(c3nc4ccc(C5=NCCN5)cc4[nH]3)C(c3cccs3)C2c2nc3ccc(C4=NCCN4)cc3[nH]2)c1 (stereo not drawn) [2,4-Disubstituted-1,3-di-(5-amidino-2-benzoimidazolyl)-cyclobutane hydrochoride, 8']
2 | 2.8 | 0.2 | c1ccc(C2C(c3nc4ccc(C5=NCCN5)cc4[nH]3)C(c3ccccc3)C2c2nc3ccc(C4=NCCN4)cc3[nH]2)cc1 (stereo not drawn) [2,4-Disubstituted-1,3-di-(5-amidino-2-benzoimidazolyl)-cyclobutane hydrochoride, 1']
3 | > 1.7 |  | Clc1ccccc1C1C(c2nc3ccc(C4=NCCN4)cc3[nH]2)C(c2ccccc2Cl)C1c1nc2ccc(C3=NCCN3)cc2[nH]1 (stereo not drawn) [2,4-Disubstituted-1,3-di-(5-amidino-2-benzoimidazolyl)-cyclobutane hydrochoride, 4']
4 | 8 |  | c1coc(C2C(c3nc4ccc(C5=NCCN5)cc4[nH]3)C(c3ccco3)C2c2nc3ccc(C4=NCCN4)cc3[nH]2)c1 (stereo not drawn) [2,4-Disubstituted-1,3-di-(5-amidino-2-benzoimidazolyl)-cyclobutane hydrochoride, 7']

More lines, now with the values behind:

Row | Structure (SMILES) | IC50 [1] [µM] | Kd [2] [µM]
5 | N=C(N)c1ccc2nc(C3C(c4ccccc4)C(c4nc5ccc(C(=N)N)cc5[nH]4)C3c3ccccc3)[nH]c2c1 (stereo not drawn) [2,4-Disubstituted-1,3-di-(5-amidino-2-benzoimidazolyl)-cyclobutane hydrochoride, 2'] | 5.6 | 
6 | CC(C)N=C(N)c1ccc2nc(C3C(c4ccccc4)C(c4nc5ccc(C(=N)NC(C)C)cc5[nH]4)C3c3ccccc3)[nH]c2c1 (stereo not drawn) [2,4-Disubstituted-1,3-di-(5-amidino-2-benzoimidazolyl)-cyclobutane hydrochoride, 3'] | > 10 | 
7 | C(=Cc1nc2ccc(C3=NCCN3)cc2[nH]1)c1ccccc1 [Benzimidazole derivative, 3] | 10 | 
8 | N=C(N)c1ccc2nc(C3C(c4ccccc4Cl)C(c4nc5ccc(C(=N)N)cc5[nH]4)C3c3ccccc3Cl)[nH]c2c1 (stereo not drawn) [2,4-Disubstituted-1,3-di-(5-amidino-2-benzoimidazolyl)-cyclobutane hydrochoride, 5'] | 7 | 
9 | c1ncc(-c2nc3cc(C4=NCCN4)ccc3[nH]2)[nH]1 [Benzimidazole derivative, 2] | 18 | 
10 | C(=C\c1nc2ccccc2[nH]1)/c1ccccc1 [Benzimidazole derivative, 4] | > 100 | 
11 | N=C(N)c1ccc2[nH]c(-c3c[nH]cn3)nc2c1 [Benzimidazole derivative, 1] | 53 | 
12 | CC(C)N=C(N)c1ccc2nc(C3C(c4ccccc4Cl)C(c4nc5ccc(C(=N)NC(C)C)cc5[nH]4)C3c3ccccc3Cl)[nH]c2c1 (stereo not drawn) [2,4-Disubstituted-1,3-di-(5-amidino-2-benzoimidazolyl)-cyclobutane hydrochoride, 6'] | 6 | 
